Bounds are passed on as bounds.

For one assay, the target named is T1, human LXRβ (Homo sapiens, UniProt P55055).
T1 construct: biotin (biotinylated); made in house; host or cells: E. coli (crude extract)
T1 sequence (P55055 1-460): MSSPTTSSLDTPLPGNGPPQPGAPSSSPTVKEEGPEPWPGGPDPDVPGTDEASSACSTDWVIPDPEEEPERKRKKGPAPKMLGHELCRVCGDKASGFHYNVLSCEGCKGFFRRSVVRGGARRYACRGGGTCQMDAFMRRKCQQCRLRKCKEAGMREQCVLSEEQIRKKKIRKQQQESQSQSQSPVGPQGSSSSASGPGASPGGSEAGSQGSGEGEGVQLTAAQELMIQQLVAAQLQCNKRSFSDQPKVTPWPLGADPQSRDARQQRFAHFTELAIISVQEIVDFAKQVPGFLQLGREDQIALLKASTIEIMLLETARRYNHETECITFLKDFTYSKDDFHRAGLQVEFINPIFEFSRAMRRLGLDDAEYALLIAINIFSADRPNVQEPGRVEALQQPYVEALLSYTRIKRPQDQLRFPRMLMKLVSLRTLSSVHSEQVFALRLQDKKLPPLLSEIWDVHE
Put plainly: Ligand-binding test procedure for human LXRβ (3H T0901317 tracer, flash plates). Conditions: biotinylated hLXRβ from E. coli extract; tracer 3H T0901317. The procedure, abridged: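 Biotinylated hLXRβ from E. coli extract was captured on streptavidin flash plates (Bmax ~4000 cpm) at 4 °C overnight. Test ligand dilutions were mixed with 5 nM [3H]T0901317 tracer solution and incubated on the plates overnight at 4 °C; bound radioactivity was counted after washing.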

The next assay has as its target T2, human LXRα (Homo sapiens, UniProt Q13133).
T2 construct: biotin (biotinylated); made in house; host or cells: E. coli (crude extract)
T2 sequence (Q13133 1-447): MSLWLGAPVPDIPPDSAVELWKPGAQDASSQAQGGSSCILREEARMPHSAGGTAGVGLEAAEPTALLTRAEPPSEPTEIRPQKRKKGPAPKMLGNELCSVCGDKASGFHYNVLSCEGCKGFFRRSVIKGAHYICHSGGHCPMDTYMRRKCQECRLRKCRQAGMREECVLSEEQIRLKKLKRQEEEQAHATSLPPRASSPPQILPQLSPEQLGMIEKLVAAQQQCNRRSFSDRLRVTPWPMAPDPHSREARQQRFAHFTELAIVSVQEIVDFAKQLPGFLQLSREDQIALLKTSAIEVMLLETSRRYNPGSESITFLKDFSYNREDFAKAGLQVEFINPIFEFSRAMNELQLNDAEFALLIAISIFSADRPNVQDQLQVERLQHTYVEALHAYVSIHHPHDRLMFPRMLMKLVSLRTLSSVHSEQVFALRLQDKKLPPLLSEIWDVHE
Briefly: Ligand-binding test procedure for human LXRα (3H T0901317 tracer, flash plates). Conditions: biotinylated hLXRα from E. coli extract; tracer 3H T0901317. On the procedure:
II. Ligand-Binding Test Procedure for Human LXRα.
Receptor source: E. coli extract from cells expressing biotinylated hLXRα. Extract was made in a similar buffer as above, but with 50 mM TRIS.
Washed streptavidin and coated flash plates with wash buffer. Diluted receptor extract to give Bmax ˜4000 cpm and add to the wells. Wrapped the plates in aluminum foil and stored them at +4° C. over night.
Made a dilution series in DMSO of the test ligands. Made a 5 nM solution of the radioactive tracer in buffer. Mixed 250 μl diluted tracer with 5 μl of the test ligand from each concentration of the dilution series. Washed the receptor-coated flash plates. Added 200 μl per well of the ligand/radiolabel mixture to the receptor-coated flash plates. Wrapped the plates in aluminum foil and incubate at +4° C. over night.
Aspirated wells, and wash the flashed plates. Sealed the plate. Measured the remaining radioactivity in the plate.

As for `CCS(=O)(=O)c1cccc(Oc2cccc(-c3c(Cc4ccccc4)nc4c(C(F)(F)F)cccn34)c2)c1` [Example 29, 2-benzyl-3-(3-(3-(ethylsulfonyl)phenoxy)phenyl)-8-(trifluoromethyl)imidazo[1,2-a]pyridine], the IC50 (as a rule, the concentration that gives 50% inhibition) is 1.3 nM on human LXRβ and 10 nM on human LXRα.

With `CCc1nc2c(C(F)(F)F)cccn2c1-c1ccc(-c2ccc(S(=O)(=O)C(C)C)cc2)cc1` [Example 92, 2-ethyl-3-(4′-(isopropylsulfonyl)biphenyl-4-yl)-8-(trifluoromethyl)imidazo[1,2-a]pyridine], the IC50 at human LXRβ was 1590 nM; on human LXRα, above 1000 nM.

Regarding `CCc1nc2c(Cl)cccn2c1-c1ccc(Oc2cccc(S(C)(=O)=O)c2)cc1` [Example 103, 8-chloro-2-ethyl-3-{4-[3-(methylsulfonyl)phenoxy]phenyl}imidazo[1,2-a]pyridine], the IC50 at human LXRβ is 417 nM; at human LXRα, above 1000 nM.

As for `CCc1nc2c(Cl)cccn2c1-c1cccc(Oc2cccc(S(=O)(=O)N(C)Cc3ccc(OC)cc3)c2)c1` [Example 43, 3-[3-(8-chloro-2-ethylimidazo[1,2-a]pyridin-3-yl)phenoxy]-N-(4-methoxybenzyl)-N-methylbenzenesulfonamide], the results for the IC50 on human LXRβ and on human LXRα were 14.7 nM and 39.9 nM, respectively.

Take `CCc1nc2c(C(F)(F)F)cccn2c1-c1ccc(Oc2cccc(S(=O)(=O)CC)c2)cc1` [Example 105, 2-ethyl-3-{4-[3-(ethylsulfonyl)phenoxy]phenyl}-8-(trifluoromethyl)imidazo[1,2-a]pyridine]: the IC50 was 230 nM at human LXRβ and above 1000 nM at human LXRα.

In the case of `CCc1nc2c(C(F)(F)F)cccn2c1-c1ccc(Oc2cccc(S(C)(=O)=O)c2)cc1` [Example 102, 2-ethyl-3-{4-[3-(methylsulfonyl)phenoxy]phenyl}-8-(trifluoromethyl)imidazo[1,2-a]pyridine], the IC50 at human LXRβ is 336 nM; at human LXRα, above 1000 nM.

Consider `CN(C)Cc1nc2c(C(F)(F)F)cccn2c1-c1cccc(Oc2cccc(S(C)(=O)=O)c2)c1` [Example 137, N,N-dimethyl-1-[3-{3-[3-(methylsulfonyl)phenoxy]phenyl}-8-(trifluoromethyl)imidazo[1,2-a]pyridin-2-yl]methanamine], for which the half-maximal inhibitory concentration (IC50) on human LXRβ and at human LXRα was above 1000 nM each time.

For the compound `CC(C)c1nc2c(C#N)cccn2c1-c1cccc(OCc2cccc(S(C)(=O)=O)c2)c1` [Example 55, 2-isopropyl-3-(3-{[3-(methylsulfonyl)benzyl]oxy}phenyl)imidazo[1,2-a]pyridine-8-carbonitrile], the values for the 50% inhibitory concentration (IC50) at human LXRβ and on human LXRα were 1100 nM and 28500 nM, respectively.

As for `Cc1nc2c(C(F)(F)F)cccn2c1-c1cccc(Oc2cccc(S(=O)(=O)CCC(C)(C)O)c2)c1` [Example 14, 2-methyl-4-[(3-{3-[2-methyl-8-(trifluoromethyl)imidazo[1,2-a]pyridin-3-yl]phenoxy}phenyl)sulfonyl]butan-2-ol], the 50% inhibitory concentration (IC50) was found to be 525 nM at human LXRβ and 6250 nM at human LXRα.

Consider `CCc1nc2c(C#N)cccn2c1-c1cccc(Oc2cccc(S(=O)(=O)N(Cc3ccc(OC)cc3)Cc3ccc(OC)cc3)c2)c1` [Example 45, 3-[3-(8-cyano-2-ethylimidazo[1,2-a]pyridin-3-yl)phenoxy]-N,N-bis(4-methoxybenzyl)benzenesulfonamide], for which the IC50 at human LXRβ and on human LXRα was above 1000 nM in each case.

Turning to `CCc1nc2c(C(F)(F)F)cccn2c1-c1cccc(Oc2cccc(S(=O)(=O)CCC(C)(C)O)c2)c1` [Example 22, 4-(3-(3-(2-ethyl-8-(trifluoromethyl)imidazo[1,2-a]pyridin-3-yl)phenoxy)phenylsulfonyl)-2-methylbutan-2-ol], the half-inhibitory concentration (IC50) on human LXRβ amounted to 740 nM; on human LXRα, 7130 nM.

Consider `CNCCCS(=O)(=O)c1cccc(Oc2cccc(-c3c(C(C)C)nc4c(C(F)(F)F)cccn34)c2)c1` [Example 62, 3-[(3-{3-[2-isopropyl-8-(trifluoromethyl)imidazo[1,2-a]pyridin-3-yl]phenoxy}phenyl)sulfonyl]-N-methylpropan-1-amine], for which the IC50 is 91.5 nM at human LXRβ and 2810 nM on human LXRα.

Regarding `CCc1nc2c(C(F)(F)F)cccn2c1-c1ccc(-c2ccc(S(C)(=O)=O)cc2)cc1` [Example 93, 2-ethyl-3-(4′-(methylsulfonyl)biphenyl-4-yl)-8-(trifluoromethyl)imidazo[1,2-a]pyridine], the values for the IC50 on human LXRβ and on human LXRα were 4080 nM and above 1000 nM, respectively.

On to `CC(C)(C)c1nc2c(C#N)cccn2c1-c1cccc(Oc2cccc(S(=O)(=O)CCCO)c2)c1` [Example 81, 2-tert-butyl-3-(3-{3-[(3-hydroxypropyl)sulfonyl]phenoxy}phenyl)imidazo[1,2-a]pyridine-8-carbonitrile], for which the results for the 50% inhibitory concentration (IC50) on human LXRβ and at human LXRα were 152 nM and 2390 nM, respectively.

Regarding `CC(C)S(=O)(=O)c1cccc(Oc2cccc(-c3c(Cc4ccccc4)nc4c(C(F)(F)F)cccn34)c2)c1` [Example 30, 2-benzyl-3-(3-(3-(isopropylsulfonyl)phenoxy)phenyl)-8-(trifluoromethyl)imidazo[1,2-a]pyridine], the IC50 was found to be 1.7 nM at human LXRβ and 15.8 nM on human LXRα.

In the case of `CCc1nc2c(Cl)cccn2c1-c1ccc(Oc2cccc(S(=O)(=O)CC)c2)cc1` [Example 106, 8-chloro-2-ethyl-3-{4-[3-(ethylsulfonyl)phenoxy]phenyl}imidazo[1,2-a]pyridine], the half-inhibitory concentration (IC50) at human LXRβ was 430 nM; on human LXRα, above 1000 nM.

In the case of `CCc1nc2c(C#N)cccn2c1-c1cccc(Oc2cccc(S(C)(=O)=O)c2)c1` [Example 69, 2-ethyl-3-{3-[3-(methylsulfonyl)phenoxy]phenyl}imidazo[1,2-a]pyridine-8-carbonitrile], the figures for the IC50 at human LXRβ and on human LXRα were 161 nM and 2700 nM, respectively.

Source of the values: US20110112135A1, “Imidazo [1,2-A] Pyridine Compounds” (priority 2007, published 2011).
